“Also recorded” adds a separate entry of the source.

In test [1] the test system is K3-CHO and Park8-SH-SY5Y cells expressing human Parkin. The test can be described thus: Parkin cleavage during cellular apoptosis, induction verified by PARP immunoblot, in Parkin expressing cell lines. The test is classed as cell-based.
Description: Parkin cleavage during cellular apoptosis. […] Lanes 1-4, 6 were probed with T160, lane 5 with PAR-N1 and lane 7 with PAR-C1. The molecular weight is indicated to the left for Parkin (51 kDa) and the Parkin peptides (38 kDa and 11,5 kDa, respectively). The induction of apoptosis was verified biochemically by testing the binding of the same membranes with the mouse monoclonal poly-ADP-ribose (PARP) antibody 66401 A (Pharmigen). […] The generation of the 86 kDa PARP fragment is a recognised marker for apoptosis associated proteolysis.
The stably transfected Parkin expressing cell lines, K3-CHO (FIG. 3, lanes 1-5) and Park8-SH-SY5Y (FIG. 3, lanes 6, 7) were extracted and prepared for immunoblotting as described in example 2. […] FIG. 3, lanes 1-4, 6 were probed with T160, lane 5 with PAR-N1 and lane 7 with PAR-C1 antibodies. The molecular weight is indicated to the left for Parkin (51 kDa) and the Parkin peptides (38 kDa and 11,5 kDa, respectively). […]
Test [2] concerns apoptosis-associated Parkin cleavage in K3 CHO cells expressing human Parkin. Description: Caspase inhibitors on okadaic acid-induced, apoptosis-associated Parkin cleavage in K3 CHO cells (T160 immunoblot). In kind it is cell-based, Chinese hamster. As to conditions: 10 microM inhibitor, 200 nM okadaic acid for 16 h. The protocol:
K3 CHO cells were treated with 200 nM okadaic acid for 16 h (lanes 2-4) in the presence of 10 microM of the caspase inhibitors YVAD-chloromethylketone (lane 3) and DEVD-chloromethylketone (lane 4). The control cells treated with the DMSO used for solubilising the caspase inhibitors are shown in lane 2. Lane 1 represents non-treated control cells. […] Similar data was obtained in the Park8 SH-SY5Y cells.
The parental cell lines and the Parkin expressing cell lines were extracted in 8 M urea, 1% Triton X 100.20 microgram protein was supplemented to 2% sodium dodecylsulphate, 20 mM dithioerythreitol, 20 mM Tris, pH 6.5, 20% glycerol, heated to 95° C. for 5 min, whereafter the mixture was resolved by 10-20% gradient sodium dodecylsulphate polyacrylamide gelelectrophoresis. The proteins in the gel were electroblotted onto a nitrocellulose membrane and non-specific protein binding was blocked by incubating the membrane in block solution (20 mM Tris, pH 7.4, 130 mM NaCl, 0.5% Triton X100, 5% skimmed milk powder) for 2 hours. The membrane was subsequently incubated with primary antibody (PAR-N1, PAR-C1 and T160 diluted 1/500 in block solution) for 2 hours, rinsed in 20 mM Tris, pH 7.4, 130 mM NaCl, 0.5% Triton X100 and incubated with a second antibody (horse radish peroxidase conjugated swine anti rabbit serum) for 1 hour and rinsed. The bound antibody was then visualised by chemilumenescense according to the manufacturers recommendation (ECL, Amersham Pharmacia Biotech). FIG. 2 panel B, lanes 1 and 5 represent the non-transfected CHO and SH-SY5Y cell lines, respectively. FIG. 2, panel B, lanes 24 represents Parkin expressing CHO cells K3 and lane 6 represents the Parkin expressing SH-SY5Y cell Park 8. Lanes 1, 2, 5 and 6 were incubated with T160, lane 3 with PAR-Ni and lane 4 with PAR-C1. The molecular size marker is indicated to the left in kDa.
K3-CHO cells were treated with 200 nM okadaic acid for 16 h prior to extraction and processing for T160 immunoblot as described in example 2. […]

For test [3], the system named is apoptosis-associated (caspase) cleavage of human Parkin. Description: Site directed mutagenesis of Parkin Asp residues: apoptosis-associated cleavage in stably transfected CHO and SH-SY5Y cell lines (T160 immunoblot). The test is classed as cell-based. The settings on record: 200 nanoM okadaic acid for 16 h. The source says:
Site directed mutagenesis of […] 126 in parkin to a glutamate residue reduce the apoptosis associated cleavage of parkin. Caspases are proteinases that always cleave after an Asp residue and FIG. 3 indicated the cleavage takes place within the N-terminal 150 amino acid residues. We mutagenised the parkin expression vector to express human parkin where the Asp in the positions 86 plus 87,106, 115, 126 and 130 were substituted with and Glu. CHO and SHSY5Y cell lines were stably transfected with the expression vectors and used for testing the effect of the mutations on apoptosis-associated parkin cleavage. These cells and the cell lines expressing the normal Parkin were treated with 200 nanoM okadaic acid for 16 h and extracted for T160 immunoblotting. The CHO cell lines are represented in lanes 1-6 and the SH-SY5Y cell lines in lanes 7-12. Wild type Parkin is represented in lanes 1, 2, 7, 8; D126E in lanes 3, 4, 9, 10; D130E in lanes 5, 6, 11, 12. Lanes 1, 3, 5, 7, 9, 11 represent untreated cells and lanes 2, 4, 6, 8, 10, 12 represent okadaic treated cells. The positions of the 51 kDa and 38 kDa Parkin proteins are indicated by the upper and lower left arrows.
Caspases are proteinases that always cleave after an Asp residue. Cell lines were generated where Asp residues were changed to Glu residues to test if this amino acid position might represent the caspase cleavage sites. The Parkin expression vector used for generating the Parkin expressing K3 CHO and Park8 SH-SY5Y cell lines was changed by PCR mediated site directed mutagenesis so the nucleotide No.479 was changed from a cytosine to an adenine (ParkinD126E). The cDNA encoding Parkin was kindly provided by Dr. Mizuno, Juntendo University School of Medicine, Japan. The Parkin cDNA was PCR amplified using the primers: […]
The amplified Parkin cDNA was cloned into the Nhe I and EcoR I site of the pcDNA3.1/Zeo(−) vector and the Parkin cDNA sequence was checked by sequencing. To prepare the D126E mutant, the inventors performed site-directed mutagenesis using the Quickchange Mutagenesis Kit (Stratagene) according to the manufactures instructions. Complementary strands of the oligonucleotide: 5′-[…]-3′ were used for preparing the D126E mutated construct. Parkin vectors containing Parkin mutated for D130E and DD86, 87EE were constructed by analogous techniques. This vector was then transfected into SH-SYSY or CHO cells using FUGENE6 (Boehringer Mannheim) and stably transfected cell lines were selected using 25 microgram Zeocinl ml medium (SH-SY5Y cells) or 300 microgram Zeocin/ml medium (CHO cells). The sequences of the vectors were verified by DNA sequencing. The expression vectors were used to generate the stably transfected DD86, 87EE, D126E and D130E CHO and SH-SY5Y cell lines expressing Parkin protein with the indicated substitutions of amino acids. These cells and the cell lines expressing the normal Parkin were treated with 200 nanoM okadaic acid for 16 h and extracted for T160 immunoblotting. The CHO cell lines are represented in lanes FIG. 5, 1-6 and the SH-SY5Y cell lines in lanes 7-12. Wild type Parkin is represented in lanes 1, 2, 7, 8; D126E in lanes 3, 4, 9, 10; D130E in lanes 5, 6, 11, 12. Lanes 1, 3, 5, 7, 9, 11 represent untreated cells and lanes 2, 4, 6, 8, 10, 12 represent okadaic treated cells. The positions of the 51 kDa and 38 kDa Parkin proteins are indicated by the upper and lower left arrows.

For test [4], the system named is CHO and SH-SY5Y cell lines. As to conditions: cell death induced by 3 mM mercaptoethanol; Imai et al. 2000, FIG. 4A; cited from earlier work.

Turning to `CC[C@@]1(O)C(=O)OCc2c1cc1n(c2=O)Cc2cc3ccccc3nc2-1` [campthotecin], the “Induction of apoptosis (generation of caspase 3 generated 86 kDa PARP fragment)” value in test [1] (5 microgram/ml for 30 hours, K3-CHO) is 86 kDa fragment was generated.

With `OCCS` [mercaptoethanol], the “Parkin cleavage after D126 following induced cell death” value in test [1] (T160 immunoblotting as in example 3) is “followed by Parkin cleavage after D126”.

Take `C=C1[C@@H](O)[C@@H]2O[C@]3(CC[C@H](/C=C/[C@@H](C)[C@@H]4CC(C)=C[C@@]5(O[C@H](C[C@@](C)(O)C(=O)O)CC[C@H]5O)O4)O3)CC[C@H]2O[C@@H]1[C@@H](O)C[C@H](C)[C@H]1O[C@@]2(CCCCO2)CC[C@H]1C` [okadaic acid]: the “Induction of apoptosis (generation of caspase 3 generated 86 kDa PARP fragment)” value in test [1] (200 nM for 16 hours) is listed as 86 kDa fragment was generated.

With DEVD-chloromethylketone, in test [2], the “Effect on apoptosis-associated Parkin cleavage (51 kDa Parkin to 38 kDa fragment)” value is given as “abrogate the cleavage; also recorded: cleavage is abrogated”.

For YVAD-chloromethylketone, the “Effect on apoptosis-associated Parkin cleavage (51 kDa Parkin to 38 kDa fragment)” value in test [2] is recorded as “cleavage is abrogated”; in test [2] (listed as WAD-chloromethylketone), “abrogate the cleavage”.

B1: D130E: human Parkin with Asp 130 substituted by Glu (protein)
chain: MIVFVRFNSSHGFPVEVDSDTSIFQLKEVVAKRQGVPADQLRVIFAGKELRNDWTVQNCDLDQQSIVHIVQRPWRKGQEMNATGGDDPRNAAGGCEREPQSLTRVDLSSSVLPGDSVGLAVILHTDSRKESPPAGSPAGRSIYNSFYVYCKGPCQRVQPGKLRVQCSTCRQATLTLTQGPSCWDDVLIPNRMSGECQSPHCPGTSAEFFFKCGAHPTSDKETPVALHLIATNSRNITCITCTDVRSPVLVFQCNSRHVICLDCFHLYCVTRLNDRQFVHDPQLGYSLPCVAGCPNSLIKELHHFRILGEEQYNRYQQYGAEECVLQMGGVLCPRPGCGAGLLPEPDQRKVTCEGGNGLGCGFAFCRECKEAYHEGECSAVFEASGTTTQAYRVDERAAEQARWEAASKETIKKTTKPCPRCHVPVEKNGGCMHMKCPQPQCRLEWCWNCGCEWNRVCMGDHWFDV
Take B1: the “Apoptosis-associated cleavage of mutated Parkin compared to wild type” value in test [3] was “no significant effect; also recorded: cleavage as the WT parkin”.

B2: D105E: human Parkin Asp to Glu mutant (position printed as 105 and 106) (protein)
chain: MIVFVRFNSSHGFPVEVDSDTSIFQLKEVVAKRQGVPADQLRVIFAGKELRNDWTVQNCDLDQQSIVHIVQRPWRKGQEMNATGGDDPRNAAGGCEREPQSLTRVELSSSVLPGDSVGLAVILHTDSRKDSPPAGSPAGRSIYNSFYVYCKGPCQRVQPGKLRVQCSTCRQATLTLTQGPSCWDDVLIPNRMSGECQSPHCPGTSAEFFFKCGAHPTSDKETPVALHLIATNSRNITCITCTDVRSPVLVFQCNSRHVICLDCFHLYCVTRLNDRQFVHDPQLGYSLPCVAGCPNSLIKELHHFRILGEEQYNRYQQYGAEECVLQMGGVLCPRPGCGAGLLPEPDQRKVTCEGGNGLGCGFAFCRECKEAYHEGECSAVFEASGTTTQAYRVDERAAEQARWEAASKETIKKTTKPCPRCHVPVEKNGGCMHMKCPQPQCRLEWCWNCGCEWNRVCMGDHWFDV
As to B2, the “Apoptosis-associated cleavage of mutated Parkin compared to wild type” value in test [3] is recorded as “cleavage as the WT parkin”.

B3: DD86, 87EE: human Parkin double mutant, Asp 86 and 87 substituted by Glu (protein)
chain: MIVFVRFNSSHGFPVEVDSDTSIFQLKEVVAKRQGVPADQLRVIFAGKELRNDWTVQNCDLDQQSIVHIVQRPWRKGQEMNATGGEEPRNAAGGCEREPQSLTRVDLSSSVLPGDSVGLAVILHTDSRKDSPPAGSPAGRSIYNSFYVYCKGPCQRVQPGKLRVQCSTCRQATLTLTQGPSCWDDVLIPNRMSGECQSPHCPGTSAEFFFKCGAHPTSDKETPVALHLIATNSRNITCITCTDVRSPVLVFQCNSRHVICLDCFHLYCVTRLNDRQFVHDPQLGYSLPCVAGCPNSLIKELHHFRILGEEQYNRYQQYGAEECVLQMGGVLCPRPGCGAGLLPEPDQRKVTCEGGNGLGCGFAFCRECKEAYHEGECSAVFEASGTTTQAYRVDERAAEQARWEAASKETIKKTTKPCPRCHVPVEKNGGCMHMKCPQPQCRLEWCWNCGCEWNRVCMGDHWFDV
Turning to B3, the “Apoptosis-associated cleavage of mutated Parkin compared to wild type” value in test [3] is given as “no significant effect; also recorded: cleavage as the WT parkin”.

B4: D115E: human Parkin with Asp 115 substituted by Glu (protein)
chain: MIVFVRFNSSHGFPVEVDSDTSIFQLKEVVAKRQGVPADQLRVIFAGKELRNDWTVQNCDLDQQSIVHIVQRPWRKGQEMNATGGDDPRNAAGGCEREPQSLTRVDLSSSVLPGESVGLAVILHTDSRKDSPPAGSPAGRSIYNSFYVYCKGPCQRVQPGKLRVQCSTCRQATLTLTQGPSCWDDVLIPNRMSGECQSPHCPGTSAEFFFKCGAHPTSDKETPVALHLIATNSRNITCITCTDVRSPVLVFQCNSRHVICLDCFHLYCVTRLNDRQFVHDPQLGYSLPCVAGCPNSLIKELHHFRILGEEQYNRYQQYGAEECVLQMGGVLCPRPGCGAGLLPEPDQRKVTCEGGNGLGCGFAFCRECKEAYHEGECSAVFEASGTTTQAYRVDERAAEQARWEAASKETIKKTTKPCPRCHVPVEKNGGCMHMKCPQPQCRLEWCWNCGCEWNRVCMGDHWFDV
Turning to B4, in test [3], the “Apoptosis-associated cleavage of mutated Parkin compared to wild type” value is listed as “cleavage as the WT parkin”.

B5: Parkin: wild type human Parkin protein (SEQ ID NO: 2) (protein, listed as Homo sapiens)
chain: MIVFVRFNSSHGFPVEVDSDTSIFQLKEVVAKRQGVPADQLRVIFAGKELRNDWTVQNCDLDQQSIVHIVQRPWRKGQEMNATGGDDPRNAAGGCEREPQSLTRVDLSSSVLPGDSVGLAVILHTDSRKDSPPAGSPAGRSIYNSFYVYCKGPCQRVQPGKLRVQCSTCRQATLTLTQGPSCWDDVLIPNRMSGECQSPHCPGTSAEFFFKCGAHPTSDKETPVALHLIATNSRNITCITCTDVRSPVLVFQCNSRHVICLDCFHLYCVTRLNDRQFVHDPQLGYSLPCVAGCPNSLIKELHHFRILGEEQYNRYQQYGAEECVLQMGGVLCPRPGCGAGLLPEPDQRKVTCEGGNGLGCGFAFCRECKEAYHEGECSAVFEASGTTTQAYRVDERAAEQARWEAASKETIKKTTKPCPRCHVPVEKNGGCMHMKCPQPQCRLEWCWNCGCEWNRVCMGDHWFDV
modifications: mat_peptide (1)..() Native Parkin
In the case of B5, in test [4], the “Protection against cell death by Parkin expression” value is on record as “approximately 50%”.

The values above are taken from patent publication US20040198650A1, “Means for inhibiting proteolytical processing of parkin” (priority 2001, published 2004).
